Patent US10544143B2, “4-azaindole compounds” (BRISTOL-MYERS SQUIBB COMPANY, priority 2017, dated 2020)

Experiments:
[1] = biological target: human TLR7 (Homo sapiens (Human), UniProt Q9NYK1); assay: TLR7 inhibition reporter assay (HEK-Blue SEAP); format: cell-based; conditions: HEK-Blue cells overexpressing human TLR7, SEAP reporter, gardiquimod 7.5 μM
[2] = biological target: human TLR8 (Homo sapiens (Human), UniProt Q9NR97); assay: TLR8 inhibition reporter assay (HEK-Blue SEAP); conditions: read-out: TLR8 IC50; HEK-Blue cells overexpressing human TLR8, SEAP reporter, R848 15.9 μM;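 further: SEAP driven by IFN-β minimal promoter carrying NF-κB and AP-1 sites, compounds dosed 0.05 nM to 50 µM for 22 h, inhibition scaled between agonist-plus-DMSO and reference-inhibitor wells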
[3] = biological target: human TLR9 (Homo sapiens (Human), UniProt Q9NR96); assay: TLR9 inhibition reporter assay (HEK-Blue SEAP); conditions: read-out: TLR9 IC50; HEK-Blue cells overexpressing human TLR9, SEAP reporter, ODN2006 5 nM;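 further: SEAP driven by an IFN-β minimal promoter with NF-κB and AP-1 sites, read after 22 h, compounds dosed 0.05 nM–50 µM, inhibition scaled between agonist plus DMSO and reference-inhibitor wells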
Sequence of human TLR9 (Q9NR96 26-1032): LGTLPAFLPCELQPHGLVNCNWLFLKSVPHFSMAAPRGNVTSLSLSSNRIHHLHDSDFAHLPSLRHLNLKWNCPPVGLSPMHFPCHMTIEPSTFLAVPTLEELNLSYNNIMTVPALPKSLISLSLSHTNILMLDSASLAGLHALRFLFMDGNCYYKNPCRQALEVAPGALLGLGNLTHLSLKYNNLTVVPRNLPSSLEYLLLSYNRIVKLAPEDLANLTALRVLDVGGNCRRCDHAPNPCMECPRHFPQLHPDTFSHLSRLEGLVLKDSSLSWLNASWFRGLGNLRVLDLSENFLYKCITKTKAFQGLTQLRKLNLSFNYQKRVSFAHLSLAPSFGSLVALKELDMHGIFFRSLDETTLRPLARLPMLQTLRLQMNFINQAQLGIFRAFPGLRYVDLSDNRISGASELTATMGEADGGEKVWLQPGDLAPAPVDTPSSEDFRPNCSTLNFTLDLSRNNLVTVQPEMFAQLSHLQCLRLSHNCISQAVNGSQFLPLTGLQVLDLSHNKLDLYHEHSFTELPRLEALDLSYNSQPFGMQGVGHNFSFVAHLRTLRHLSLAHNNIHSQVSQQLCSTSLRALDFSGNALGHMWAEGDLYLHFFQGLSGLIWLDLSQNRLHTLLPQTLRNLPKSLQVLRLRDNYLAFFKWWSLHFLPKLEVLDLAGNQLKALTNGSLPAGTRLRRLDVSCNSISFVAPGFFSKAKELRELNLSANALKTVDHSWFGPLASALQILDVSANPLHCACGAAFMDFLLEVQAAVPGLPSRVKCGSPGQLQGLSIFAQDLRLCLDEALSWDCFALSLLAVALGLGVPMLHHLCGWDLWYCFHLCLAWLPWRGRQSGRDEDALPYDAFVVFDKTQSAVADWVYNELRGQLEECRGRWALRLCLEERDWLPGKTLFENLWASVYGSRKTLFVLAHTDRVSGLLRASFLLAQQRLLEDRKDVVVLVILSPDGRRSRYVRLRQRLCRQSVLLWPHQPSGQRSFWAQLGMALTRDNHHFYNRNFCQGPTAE

Sequence of human TLR8 (Q9NR97 27-1041): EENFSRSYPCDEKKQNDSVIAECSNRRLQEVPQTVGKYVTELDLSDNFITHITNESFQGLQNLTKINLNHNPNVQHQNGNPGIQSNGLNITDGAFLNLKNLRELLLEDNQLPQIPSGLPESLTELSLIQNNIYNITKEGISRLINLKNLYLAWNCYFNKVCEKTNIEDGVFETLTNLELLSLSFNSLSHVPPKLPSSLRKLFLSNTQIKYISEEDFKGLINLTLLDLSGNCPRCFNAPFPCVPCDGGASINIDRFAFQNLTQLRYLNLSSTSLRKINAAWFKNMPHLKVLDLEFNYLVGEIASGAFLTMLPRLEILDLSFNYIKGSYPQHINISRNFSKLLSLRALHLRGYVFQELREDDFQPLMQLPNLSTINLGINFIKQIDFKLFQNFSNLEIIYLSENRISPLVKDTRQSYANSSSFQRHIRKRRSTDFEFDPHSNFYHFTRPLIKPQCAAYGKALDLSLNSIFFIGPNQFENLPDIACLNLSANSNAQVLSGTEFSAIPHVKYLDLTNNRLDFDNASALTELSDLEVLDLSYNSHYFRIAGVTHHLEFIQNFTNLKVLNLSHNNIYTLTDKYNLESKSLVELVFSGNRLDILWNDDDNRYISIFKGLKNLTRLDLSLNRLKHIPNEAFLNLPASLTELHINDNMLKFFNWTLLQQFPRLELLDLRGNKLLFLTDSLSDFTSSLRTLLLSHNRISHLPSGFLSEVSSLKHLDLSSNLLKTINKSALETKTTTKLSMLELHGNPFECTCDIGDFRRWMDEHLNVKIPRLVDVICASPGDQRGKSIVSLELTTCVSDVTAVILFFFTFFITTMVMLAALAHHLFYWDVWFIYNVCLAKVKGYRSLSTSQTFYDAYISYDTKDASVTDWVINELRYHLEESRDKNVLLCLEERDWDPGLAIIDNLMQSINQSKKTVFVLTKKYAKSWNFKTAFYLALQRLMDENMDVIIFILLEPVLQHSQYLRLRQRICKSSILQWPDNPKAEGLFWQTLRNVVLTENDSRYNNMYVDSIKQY
Sequence of human TLR7 (Q9NYK1 27-1049): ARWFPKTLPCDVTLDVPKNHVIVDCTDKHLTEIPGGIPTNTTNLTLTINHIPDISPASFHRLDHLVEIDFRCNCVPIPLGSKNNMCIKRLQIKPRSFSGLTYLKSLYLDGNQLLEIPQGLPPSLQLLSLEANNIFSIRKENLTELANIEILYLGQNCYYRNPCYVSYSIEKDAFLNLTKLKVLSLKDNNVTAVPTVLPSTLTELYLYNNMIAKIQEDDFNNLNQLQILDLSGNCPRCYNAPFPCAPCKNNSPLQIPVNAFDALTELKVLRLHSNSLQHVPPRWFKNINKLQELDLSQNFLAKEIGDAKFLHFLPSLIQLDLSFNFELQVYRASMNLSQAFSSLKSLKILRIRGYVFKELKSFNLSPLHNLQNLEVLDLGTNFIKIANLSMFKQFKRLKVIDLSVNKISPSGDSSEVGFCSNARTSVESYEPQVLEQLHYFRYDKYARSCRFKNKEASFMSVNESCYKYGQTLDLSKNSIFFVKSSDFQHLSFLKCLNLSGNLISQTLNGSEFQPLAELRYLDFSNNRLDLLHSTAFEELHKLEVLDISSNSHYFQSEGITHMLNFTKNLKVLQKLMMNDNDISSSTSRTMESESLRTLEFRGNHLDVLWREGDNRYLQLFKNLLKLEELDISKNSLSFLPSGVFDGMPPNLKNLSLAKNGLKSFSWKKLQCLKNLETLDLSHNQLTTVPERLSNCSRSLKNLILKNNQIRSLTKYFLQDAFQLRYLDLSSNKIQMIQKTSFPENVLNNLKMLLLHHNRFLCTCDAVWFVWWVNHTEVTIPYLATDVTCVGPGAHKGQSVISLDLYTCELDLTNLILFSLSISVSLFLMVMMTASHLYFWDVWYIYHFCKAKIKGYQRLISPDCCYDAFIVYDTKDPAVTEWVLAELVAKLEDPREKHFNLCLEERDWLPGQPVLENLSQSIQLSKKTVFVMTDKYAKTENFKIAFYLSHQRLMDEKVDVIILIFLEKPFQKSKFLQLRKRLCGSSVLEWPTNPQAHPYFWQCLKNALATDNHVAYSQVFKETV

SMILES: Cc1c(-c2[nH]c3ccc(C4CCC(N)CC4)nc3c2C(C)C)cn2ncnc2c1C (stereo not drawn) [Example 466]
- IC50 [1]: 59 nM
- IC50 [2]: 204 nM
- IC50 [3]: 5800 nM

SMILES: CCN(CC(=O)N(C)C)C1CCC(c2ccc3[nH]c(-c4cn5ncnc5c(C)c4C)c(C(C)C)c3n2)CC1 (stereo not drawn) [Example 467]
- IC50 [1]: 1.2 nM
- IC50 [2]: 3.5 nM
- IC50 [3]: 413 nM

SMILES: Cc1c(-c2[nH]c3ccc(C4CCC(N)CC4)nc3c2C(C)C)cn2ncnc2c1C (stereo not drawn) [Example 469]
- IC50 [1]: 0.98 nM
- IC50 [2]: 2.9 nM
- IC50 [3]: 1710 nM

SMILES: Cc1c(-c2[nH]c3ccc(C4CCC(NC5CCS(=O)(=O)C5)CC4)nc3c2C(C)C)cn2ncnc2c1C (stereo not drawn) [Example 470]
- IC50 [1]: 1.3 nM
- IC50 [2]: 6 nM
- IC50 [3]: 7420 nM

SMILES: Cc1c(-c2[nH]c3ccc(C4CCC(NCC5CCCCS5(=O)=O)CC4)nc3c2C(C)C)cn2ncnc2c1C (stereo not drawn) [Example 471]
- IC50 [1]: 2.8 nM
- IC50 [2]: 3.2 nM
- IC50 [3]: 4710 nM

SMILES: Cc1c(-c2[nH]c3ccc(C4CCC(NC5(C)COC5)CC4)nc3c2C(C)C)cn2ncnc2c1C (stereo not drawn) [Example 472]
- IC50 [1]: 0.34 nM
- IC50 [2]: 1.1 nM
- IC50 [3]: 2510 nM

SMILES: Cc1c(-c2[nH]c3ccc(C4CCC(NC5(C)COC5)CC4)nc3c2C(C)C)cn2ncnc2c1C (stereo not drawn) [Example 473]
- IC50 [1]: 7.1 nM
- IC50 [2]: 9.6 nM
- IC50 [3]: 7370 nM

SMILES: Cc1c(-c2[nH]c3ccc(C4CCC(NCC5(C)COC5)CC4)nc3c2C(C)C)cn2ncnc2c1C (stereo not drawn) [Example 474]
- IC50 [1]: 0.46 nM
- IC50 [2]: 0.43 nM
- IC50 [3]: 1450 nM

SMILES: Cc1c(-c2[nH]c3ccc(C4CCC(N(CC#N)CC5(S(C)(=O)=O)CC5)CC4)nc3c2C(C)C)cn2ncnc2c1C (stereo not drawn) [Example 475]
- IC50 [1]: 1.4 nM
- IC50 [2]: 2.2 nM
- IC50 [3]: 3500 nM

SMILES: Cc1c(-c2[nH]c3ccc(C4CCC(N(C)CC5(S(C)(=O)=O)CC5)CC4)nc3c2C(C)C)cn2ncnc2c1C (stereo not drawn) [Example 476]
- IC50 [1]: 0.81 nM
- IC50 [2]: 2.6 nM
- IC50 [3]: 9750 nM

SMILES: Cc1c(-c2[nH]c3ccc(C4CCC(NCC5(C)COC5)CC4)nc3c2C(C)C)cn2ncnc2c1C (stereo not drawn) [Example 477]
- IC50 [1]: 8.3 nM
- IC50 [2]: 6 nM
- IC50 [3]: 6160 nM

SMILES: Cc1c(-c2[nH]c3ccc(C4CCC(N(CC#N)CC5(S(C)(=O)=O)CC5)CC4)nc3c2C(C)C)cn2ncnc2c1C (stereo not drawn) [Example 478]
- IC50 [1]: 13 nM
- IC50 [2]: 15 nM
- IC50 [3]: 24500 nM

SMILES: Cc1c(-c2[nH]c3ccc(C4CCC(N(C)CC5(S(C)(=O)=O)CC5)CC4)nc3c2C(C)C)cn2ncnc2c1C (stereo not drawn) [Example 479]
- IC50 [1]: 2.9 nM
- IC50 [2]: 10 nM
- IC50 [3]: 23700 nM

SMILES: CCN(CC1(S(C)(=O)=O)CC1)C1CCC(c2ccc3[nH]c(-c4cn5ncnc5c(C)c4C)c(C(C)C)c3n2)CC1 (stereo not drawn) [Example 480]
- IC50 [1]: 2 nM
- IC50 [2]: 14 nM
- IC50 [3]: 11700 nM

SMILES: Cc1c(-c2[nH]c3ccc(C4CCC(N(CCO)CC5(S(C)(=O)=O)CC5)CC4)nc3c2C(C)C)cn2ncnc2c1C (stereo not drawn) [Example 481]
- IC50 [1]: 0.82 nM
- IC50 [2]: 3.9 nM
- IC50 [3]: 13000 nM

SMILES: Cc1c(-c2[nH]c3ccc(C4CCC(N(CCO)CC5(S(C)(=O)=O)CC5)CC4)nc3c2C(C)C)cn2ncnc2c1C (stereo not drawn) [Example 482]
- IC50 [1]: 96 nM
- IC50 [2]: 238 nM
- IC50 [3]: > 50000 nM

SMILES: Cc1c(-c2[nH]c3ccc(C4CCC(NC5(CO)COC5)CC4)nc3c2C(C)C)cn2ncnc2c1C (stereo not drawn) [Example 483]
- IC50 [1]: 0.94 nM
- IC50 [2]: 1.2 nM
- IC50 [3]: 5130 nM

SMILES: Cc1c(-c2[nH]c3ccc(C4CCC(NC5(CO)COC5)CC4)nc3c2C(C)C)cn2ncnc2c1C (stereo not drawn) [Example 484]
- IC50 [1]: 6.1 nM
- IC50 [2]: 11 nM
- IC50 [3]: 7070 nM

SMILES: Cc1c(-c2[nH]c3ccc(C4CCC(NCC(=O)NC(C)(C)C)CC4)nc3c2C(C)C)cn2ncnc2c1C (stereo not drawn) [Example 485]
- IC50 [1]: 1.1 nM
- IC50 [2]: 2.2 nM
- IC50 [3]: 2520 nM

SMILES: CNC(=O)C(C)(C)NC1CCC(c2ccc3[nH]c(-c4cn5ncnc5c(C)c4C)c(C(C)C)c3n2)CC1 (stereo not drawn) [Example 487]
- IC50 [1]: 0.75 nM
- IC50 [2]: 0.49 nM
- IC50 [3]: 2290 nM

SMILES: COCCN(C)C(=O)CNC1CCC(c2ccc3[nH]c(-c4cn5ncnc5c(C)c4C)c(C(C)C)c3n2)CC1 (stereo not drawn) [Example 488]
- IC50 [1]: 11 nM
- IC50 [2]: 8.4 nM
- IC50 [3]: 5360 nM

SMILES: Cc1c(-c2[nH]c3ccc(C4CCC(NCC(=O)NC(C)(C)C)CC4)nc3c2C(C)C)cn2ncnc2c1C (stereo not drawn) [Example 489]
- IC50 [1]: 20 nM
- IC50 [2]: 20 nM
- IC50 [3]: 6670 nM

SMILES: Cc1c(-c2[nH]c3ccc(C4CCC5(CC4)CNC5)nc3c2C(C)C)cn2ncnc2c1C [Example 491, 6-(3-isopropyl-5-(2-azaspiro[3.5]nonan-7-yl)-1H-pyrrolo[3,2-b]pyridin-2-yl)-7,8-dimethyl-[1,2,4]triazolo[1,5-a]pyridine]
- IC50 [1]: 0.89 nM
- IC50 [2]: 8 nM
- IC50 [3]: 677 nM

SMILES: Cc1c(-c2[nH]c3ccc(C4CCC5(CC4)CN(C(C)C)C5)nc3c2C(C)C)cn2ncnc2c1C [Example 493]
- IC50 [1]: 1760 nM
- IC50 [2]: 3790 nM
- IC50 [3]: > 50000 nM

SMILES: Cc1c(-c2[nH]c3ccc(C4CCC(NC5(C(=O)N(C)C)CCCC5)CC4)nc3c2C(C)C)cn2ncnc2c1C (stereo not drawn) [Example 494]
- IC50 [1]: 5.2 nM
- IC50 [2]: 2.8 nM
- IC50 [3]: 14100 nM
